# In publication PMC6540285, “Evaluation of Protein Kinase Inhibitors with PLK4 Cross-Over Potential in a Pre-Clinical Model of Cancer” (International Journal of Molecular Sciences, 2019):
# Like-named read-outs stand apart in the source and are kept apart here.
# What was measured:
# [1] = molecular target: PKMYT1 (Homo sapiens, UniProt Q99640); experiment: SelectScreen kinase profiling, LanthaScreen binding; conditions: PKMYT1, 10 µM
# [2] = molecular target: AURKC (Aurora C) (Homo sapiens, UniProt Q9UQB9); experiment: SelectScreen kinase profiling, ZLYTE; type: biochemical
# [3] = molecular target: IRAK1 (Homo sapiens, UniProt P51617); experiment: SelectScreen kinase profiling, Adapta; type: biochemical; conditions: IRAK1, 10 µM
# [4] = molecular target: ABL1 E255K (Homo sapiens, UniProt P00519, E255K); experiment: SelectScreen kinase profiling, ZLYTE; type: biochemical
# [5] = molecular target: MET D1228H (Homo sapiens, UniProt P08581, D1228H); experiment: SelectScreen kinase profiling, LanthaScreen binding
# [6] = molecular target: ALK C1156Y (Homo sapiens, UniProt Q9UM73, C1156Y); experiment: as above
# [7] = molecular target: FGFR3 (Homo sapiens, UniProt P22607); experiment: SelectScreen kinase profiling, ZLYTE; type: biochemical; conditions: FGFR3, 10 µM
# Chain of FGFR3 (P22607 23-806): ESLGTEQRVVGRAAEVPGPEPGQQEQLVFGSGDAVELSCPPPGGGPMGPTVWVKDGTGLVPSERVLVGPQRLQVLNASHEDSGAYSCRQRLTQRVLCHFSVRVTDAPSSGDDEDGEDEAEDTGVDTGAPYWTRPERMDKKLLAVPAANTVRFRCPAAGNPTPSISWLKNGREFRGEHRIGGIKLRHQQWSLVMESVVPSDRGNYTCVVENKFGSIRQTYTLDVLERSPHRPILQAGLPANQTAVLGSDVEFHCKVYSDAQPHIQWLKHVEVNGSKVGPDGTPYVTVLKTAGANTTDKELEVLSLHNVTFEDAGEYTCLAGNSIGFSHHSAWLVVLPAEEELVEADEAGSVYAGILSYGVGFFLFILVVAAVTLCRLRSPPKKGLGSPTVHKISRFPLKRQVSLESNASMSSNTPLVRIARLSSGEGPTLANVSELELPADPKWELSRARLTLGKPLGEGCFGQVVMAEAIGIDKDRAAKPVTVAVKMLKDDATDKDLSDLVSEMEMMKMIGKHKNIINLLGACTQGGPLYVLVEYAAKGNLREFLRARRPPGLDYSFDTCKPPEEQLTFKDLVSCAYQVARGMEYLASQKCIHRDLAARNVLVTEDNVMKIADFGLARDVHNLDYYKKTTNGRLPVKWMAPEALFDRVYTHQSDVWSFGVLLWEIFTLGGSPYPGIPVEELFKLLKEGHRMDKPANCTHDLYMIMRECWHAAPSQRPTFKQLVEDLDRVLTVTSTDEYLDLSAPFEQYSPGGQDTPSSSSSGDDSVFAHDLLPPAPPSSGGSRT
# [8] = molecular target: MAPK14 (p38 alpha) (Homo sapiens, UniProt Q16539); experiment: SelectScreen kinase profiling, ZLYTE; type: biochemical
# [9] = molecular target: MAPK11 (p38 beta) (Homo sapiens, UniProt Q15759); experiment: SelectScreen kinase profiling, ZLYTE; type: biochemical
# Chain of MAPK11 (p38 beta) (Q15759 whole entry): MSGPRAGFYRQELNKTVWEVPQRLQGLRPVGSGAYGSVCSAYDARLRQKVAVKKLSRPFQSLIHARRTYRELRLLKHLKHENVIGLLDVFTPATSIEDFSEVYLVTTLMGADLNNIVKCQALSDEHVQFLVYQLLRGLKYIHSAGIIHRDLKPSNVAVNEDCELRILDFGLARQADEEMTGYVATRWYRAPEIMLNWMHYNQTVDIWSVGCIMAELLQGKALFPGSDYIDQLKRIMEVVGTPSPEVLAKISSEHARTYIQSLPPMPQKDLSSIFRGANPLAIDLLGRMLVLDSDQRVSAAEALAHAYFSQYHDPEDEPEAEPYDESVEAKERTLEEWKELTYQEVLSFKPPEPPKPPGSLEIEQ
# [10] = molecular target: CDC42 BPB (MRCKB) (Homo sapiens, UniProt Q9Y5S2); experiment: SelectScreen kinase profiling, ZLYTE; type: biochemical
# [11] = molecular target: PDK1 Direct (Homo sapiens, UniProt O15530); experiment: SelectScreen kinase profiling, ZLYTE; type: biochemical
# Chain of PDK1 Direct (O15530 whole entry): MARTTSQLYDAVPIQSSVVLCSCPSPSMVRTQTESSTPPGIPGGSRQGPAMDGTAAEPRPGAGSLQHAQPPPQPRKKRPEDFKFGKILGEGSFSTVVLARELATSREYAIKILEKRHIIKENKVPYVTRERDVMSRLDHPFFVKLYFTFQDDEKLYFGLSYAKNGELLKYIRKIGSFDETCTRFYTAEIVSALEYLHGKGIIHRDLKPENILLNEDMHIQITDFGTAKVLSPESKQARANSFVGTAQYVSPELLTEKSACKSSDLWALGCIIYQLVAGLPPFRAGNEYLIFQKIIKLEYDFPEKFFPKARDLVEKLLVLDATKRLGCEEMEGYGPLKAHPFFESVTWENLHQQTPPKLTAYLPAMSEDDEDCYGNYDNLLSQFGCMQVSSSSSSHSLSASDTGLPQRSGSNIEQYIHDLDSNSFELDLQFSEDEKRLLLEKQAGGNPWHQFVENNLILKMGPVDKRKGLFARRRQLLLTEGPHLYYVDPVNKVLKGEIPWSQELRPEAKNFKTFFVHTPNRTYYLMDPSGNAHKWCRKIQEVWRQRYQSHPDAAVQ
# [12] = molecular target: RAF1 (cRAF) Y340D Y341D (Homo sapiens, UniProt P04049, Y340D/Y341D); experiment: SelectScreen kinase profiling, LanthaScreen binding
# Chain of RAF1 (cRAF) Y340D Y341D (P04049 whole entry Y340D/Y341D): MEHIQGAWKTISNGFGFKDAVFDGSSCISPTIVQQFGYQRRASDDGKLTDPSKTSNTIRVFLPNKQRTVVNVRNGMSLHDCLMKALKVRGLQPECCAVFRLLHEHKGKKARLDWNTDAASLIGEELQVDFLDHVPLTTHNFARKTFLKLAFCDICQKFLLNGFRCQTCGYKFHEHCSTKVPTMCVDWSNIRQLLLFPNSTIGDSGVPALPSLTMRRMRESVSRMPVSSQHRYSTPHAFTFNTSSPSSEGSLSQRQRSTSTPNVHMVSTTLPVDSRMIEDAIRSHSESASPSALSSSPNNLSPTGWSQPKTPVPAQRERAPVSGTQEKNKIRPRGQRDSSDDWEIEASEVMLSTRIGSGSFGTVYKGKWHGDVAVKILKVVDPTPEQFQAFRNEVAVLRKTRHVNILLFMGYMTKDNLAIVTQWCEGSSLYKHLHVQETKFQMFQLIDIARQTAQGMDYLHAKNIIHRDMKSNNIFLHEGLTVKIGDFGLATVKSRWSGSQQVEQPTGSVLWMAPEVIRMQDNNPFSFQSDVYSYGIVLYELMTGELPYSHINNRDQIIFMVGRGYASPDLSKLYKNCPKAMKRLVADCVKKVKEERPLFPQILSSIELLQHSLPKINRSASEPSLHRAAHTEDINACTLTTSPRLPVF
# [13] = molecular target: DDR2 (Homo sapiens, UniProt Q16832); experiment: as above; conditions: DDR2, 10 µM
# Chain of DDR2 (Q16832 22-855): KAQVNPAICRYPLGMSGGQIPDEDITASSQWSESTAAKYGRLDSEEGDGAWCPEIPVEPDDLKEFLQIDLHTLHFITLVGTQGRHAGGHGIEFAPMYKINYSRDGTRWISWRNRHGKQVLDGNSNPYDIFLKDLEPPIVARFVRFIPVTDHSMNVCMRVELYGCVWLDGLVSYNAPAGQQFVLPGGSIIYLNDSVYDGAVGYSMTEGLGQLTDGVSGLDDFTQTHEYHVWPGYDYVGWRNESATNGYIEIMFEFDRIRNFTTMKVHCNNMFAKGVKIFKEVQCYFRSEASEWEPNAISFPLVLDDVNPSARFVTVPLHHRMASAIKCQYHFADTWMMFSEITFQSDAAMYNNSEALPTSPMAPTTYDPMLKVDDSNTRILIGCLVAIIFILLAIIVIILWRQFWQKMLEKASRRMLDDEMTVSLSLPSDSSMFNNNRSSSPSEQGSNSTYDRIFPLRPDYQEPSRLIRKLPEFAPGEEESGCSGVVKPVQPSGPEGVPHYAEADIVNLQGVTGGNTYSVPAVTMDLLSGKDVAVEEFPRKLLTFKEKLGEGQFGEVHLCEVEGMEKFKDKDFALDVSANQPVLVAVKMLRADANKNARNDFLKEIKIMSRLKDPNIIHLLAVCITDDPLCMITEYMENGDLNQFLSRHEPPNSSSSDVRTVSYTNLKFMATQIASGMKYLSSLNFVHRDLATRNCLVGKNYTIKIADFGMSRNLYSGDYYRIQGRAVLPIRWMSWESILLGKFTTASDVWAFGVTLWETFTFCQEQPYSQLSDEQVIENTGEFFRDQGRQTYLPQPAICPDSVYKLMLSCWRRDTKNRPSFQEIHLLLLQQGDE
# [14] = molecular target: MAP3K14 (NIK) (Homo sapiens, UniProt Q99558); experiment: as above
# [15] = molecular target: SNF1LK2 (Homo sapiens, UniProt Q9H0K1); experiment: SelectScreen kinase profiling, ZLYTE; type: biochemical; conditions: SNF1LK2, 10 µM
# [16] = molecular target: BLK (Homo sapiens, UniProt P51451); experiment: SelectScreen kinase profiling, ZLYTE; type: biochemical
# [17] = molecular target: MET (cMet) Y1235D (Homo sapiens, UniProt P08581, Y1235D); experiment: SelectScreen kinase profiling, ZLYTE; type: biochemical
# [18] = test system: BT-16 cells; experiment: PrestoBlue Cell Viability assay; type: cell-based; conditions: BT-16, read-out: PB: IC50 of the PrestoBlue Viability assay
# Method: (§1) Cell viability was assessed using the Presto Blue™ Cell Viability reagent (Thermo Fisher Scientific, Carlsbad, CA, USA) following the manufacturer’s instructions. Cells were plated in 96-well plates at the same densities described above for the proliferation assay. The fluorescence was measured after 24, 48, 72, and 96 h at concentrations ranging from 0.001 to 10 µM of the inhibitor. All assays were performed in triplicate.
# [19] = test system: MON cells; experiment: PrestoBlue Cell Viability assay; type: cell-based; conditions: read-out: PB: IC50 of the PrestoBlue Viability assay
# Method: as §1
# [20] = test system: D283 cells; experiment: PrestoBlue Cell Viability assay; type: cell-based; conditions: D283, read-out: PB: IC50 of the PrestoBlue Viability assay
# Method: as §1
# [21] = test system: MON cells; experiment: cells; conditions: read-out: MTT: IC50 of the proliferation assay
# [22] = molecular target: AMPK (A2/B2/G2) (Homo sapiens, UniProt P54646); experiment: SelectScreen kinase profiling, LanthaScreen binding
# [23] = molecular target: MLK4 (Homo sapiens, UniProt Q5TCX8); experiment: as above; conditions: MLK4, 10 µM
# [24] = molecular target: SIK1 (Homo sapiens, UniProt P57059); experiment: as above; conditions: SIK1, 10 µM
# [25] = molecular target: FGR (Homo sapiens, UniProt P09769); experiment: SelectScreen kinase profiling, ZLYTE; type: biochemical
# Chain of FGR (P09769 whole entry): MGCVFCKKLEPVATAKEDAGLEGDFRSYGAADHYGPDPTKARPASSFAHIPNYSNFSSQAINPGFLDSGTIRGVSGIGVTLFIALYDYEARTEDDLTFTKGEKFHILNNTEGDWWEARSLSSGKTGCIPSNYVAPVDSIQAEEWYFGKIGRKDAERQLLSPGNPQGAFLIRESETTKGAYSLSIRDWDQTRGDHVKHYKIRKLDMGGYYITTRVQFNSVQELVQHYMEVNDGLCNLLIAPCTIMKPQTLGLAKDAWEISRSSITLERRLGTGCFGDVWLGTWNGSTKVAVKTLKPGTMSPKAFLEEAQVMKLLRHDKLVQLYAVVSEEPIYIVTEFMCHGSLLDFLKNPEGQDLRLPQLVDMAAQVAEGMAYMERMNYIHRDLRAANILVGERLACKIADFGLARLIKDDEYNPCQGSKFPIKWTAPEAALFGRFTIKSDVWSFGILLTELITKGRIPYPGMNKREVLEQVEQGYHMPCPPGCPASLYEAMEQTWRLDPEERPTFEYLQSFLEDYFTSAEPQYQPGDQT
# [26] = test system: FLT3 ITD; experiment: SelectScreen kinase profiling, LanthaScreen binding; conditions: 10 µM
# [27] = molecular target: CYP3A4 (Homo sapiens, UniProt P08684); experiment: SelectScreen P450 Vivid biochemical assay; conditions: 10000nM
# Chain of CYP3A4 (P08684 whole entry): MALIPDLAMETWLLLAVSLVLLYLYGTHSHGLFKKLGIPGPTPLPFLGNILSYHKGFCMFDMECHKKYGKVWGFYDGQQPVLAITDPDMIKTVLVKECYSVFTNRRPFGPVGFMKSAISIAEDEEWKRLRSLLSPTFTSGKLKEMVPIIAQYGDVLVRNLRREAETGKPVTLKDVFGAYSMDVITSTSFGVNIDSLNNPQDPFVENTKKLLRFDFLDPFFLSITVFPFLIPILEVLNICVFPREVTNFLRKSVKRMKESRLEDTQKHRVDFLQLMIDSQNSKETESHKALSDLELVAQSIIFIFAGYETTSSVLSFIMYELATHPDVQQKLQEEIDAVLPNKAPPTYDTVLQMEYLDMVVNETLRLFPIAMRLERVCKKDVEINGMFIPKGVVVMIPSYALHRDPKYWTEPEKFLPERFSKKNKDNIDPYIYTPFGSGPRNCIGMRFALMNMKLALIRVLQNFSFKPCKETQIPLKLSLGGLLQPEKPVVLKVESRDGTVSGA
# [28] = molecular target: RET Y791F (Homo sapiens, UniProt P07949, Y791F); experiment: SelectScreen kinase profiling, ZLYTE; type: biochemical
# [29] = molecular target: LRRK2 G2019S FL (Homo sapiens, UniProt Q5S007, G2019S); experiment: SelectScreen kinase profiling, Adapta; type: biochemical
# [30] = molecular target: CSNK1A1 (CK1 alpha 1) (Homo sapiens, UniProt P48729); experiment: SelectScreen kinase profiling, ZLYTE; type: biochemical
# Chain of CSNK1A1 (CK1 alpha 1) (P48729 whole entry): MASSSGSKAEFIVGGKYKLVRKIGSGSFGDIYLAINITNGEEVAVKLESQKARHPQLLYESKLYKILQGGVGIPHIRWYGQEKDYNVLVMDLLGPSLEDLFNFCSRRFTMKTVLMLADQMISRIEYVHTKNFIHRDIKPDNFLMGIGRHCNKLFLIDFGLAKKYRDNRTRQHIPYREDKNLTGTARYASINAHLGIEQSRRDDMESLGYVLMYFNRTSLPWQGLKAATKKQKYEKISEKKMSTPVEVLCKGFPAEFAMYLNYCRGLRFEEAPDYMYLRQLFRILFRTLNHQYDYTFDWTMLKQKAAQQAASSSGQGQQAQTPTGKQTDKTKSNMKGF
# [31] = test system: D283 cells; type: cell-based; conditions: D283, read-out: MTT: IC50 of the proliferation assay
# [32] = molecular target: PRKCB2 (PKC beta II) (Homo sapiens, UniProt P05771); experiment: SelectScreen kinase profiling, ZLYTE; type: biochemical
# [33] = molecular target: AKT3 (PKB gamma) (Homo sapiens, UniProt Q9Y243); experiment: SelectScreen kinase profiling, ZLYTE; type: biochemical
# [34] = molecular target: MAP3K7/MAP3K7IP1 (TAK1-TAB1) (Homo sapiens, UniProt O43318); experiment: SelectScreen kinase profiling, LanthaScreen binding
# Chain of MAP3K7/MAP3K7IP1 (TAK1-TAB1) (O43318 1-303 limits assumed): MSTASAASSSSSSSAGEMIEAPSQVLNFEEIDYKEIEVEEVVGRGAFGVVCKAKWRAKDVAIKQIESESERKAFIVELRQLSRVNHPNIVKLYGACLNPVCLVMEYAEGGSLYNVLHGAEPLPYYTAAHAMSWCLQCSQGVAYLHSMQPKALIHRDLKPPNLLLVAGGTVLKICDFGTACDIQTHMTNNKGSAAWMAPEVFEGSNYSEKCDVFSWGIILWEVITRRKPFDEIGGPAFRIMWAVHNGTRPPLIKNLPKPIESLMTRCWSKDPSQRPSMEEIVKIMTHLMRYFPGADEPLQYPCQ
# Chain of MAP3K7/MAP3K7IP1 (TAK1-TAB1) (Q15750 437-504 partner limits assumed): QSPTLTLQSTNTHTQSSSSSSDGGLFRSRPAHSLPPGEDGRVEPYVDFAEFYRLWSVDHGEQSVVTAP
# [35] = molecular target: AMPK (A1/B2/G3) (Homo sapiens, UniProt Q13131); experiment: SelectScreen kinase profiling, ZLYTE; type: biochemical
# [36] = molecular target: CDK11/cyclin C (Homo sapiens, UniProt Q9BWU1); experiment: SelectScreen kinase profiling, LanthaScreen binding
# [37] = molecular target: PTK2B (FAK2) (Homo sapiens, UniProt Q14289); experiment: SelectScreen kinase profiling, ZLYTE; type: biochemical
smiles,measurement,setting,value
O=C(c1ccc(/C=C/c2n[nH]c3ccccc23)cc1)N1CCNCC1 [KW-2449],inhibition at 10 µM,[1],-61%
same,inhibition at 10 µM,[2],98%
same,inhibition at 10 µM,[3],99%
same,inhibition at 10 µM,[4],99%
same,inhibition at 10 µM,[5],75%
same,inhibition at 10 µM,[6],76%
same,inhibition at 10 µM,[7],97%
same,inhibition at 10 µM,[8],33%
same,inhibition at 10 µM,[9],90%
same,inhibition at 10 µM,[10],27%
same,inhibition at 10 µM,[11],103%
same,inhibition at 10 µM,[12],0%
same,inhibition at 10 µM,[13],53%
same,inhibition at 10 µM,[14],90%
same,inhibition at 10 µM,[15],97%
same,inhibition at 10 µM,[16],89%
same,inhibition at 10 µM,[17],88%
same,IC50,[18],1840 nM
same,IC50,[19],1740 nM
same,IC50,[20],> 10000 nM
same,IC50,[21],2450 nM
same,inhibition at 10 µM,[22],78%
same,inhibition at 10 µM,[23],17%
same,inhibition at 10 µM,[24],82%
same,inhibition at 10 µM,[25],99%
same,% Inhibition Avg,[26],5%
same,% Inhibition 3A4 BOMCC,[27]; substrate BOMCC,63%
same,% Inhibition 3A4 DBOMF,[27]; substrate DBOMF,46%
same,inhibition at 10 µM,[28],100%
same,inhibition at 10 µM,[29],100%
same,inhibition at 10 µM,[30],33%
same,IC50,[31],8050 nM
same,inhibition at 10 µM,[32],71%
same,inhibition at 10 µM,[33],11%
same,inhibition at 10 µM,[34],26%
same,inhibition at 10 µM,[35],99%
same,inhibition at 10 µM,[36],53%
same,inhibition at 10 µM,[37],96%
